Source: patent publication US20220348571A1, “DIHYDROPYRIMIDINE DERIVATIVES AND USES THEREOF IN THE TREATMENT OF HBV INFECTION OR OF HBV-INDUCED DISEASES” (Janssen Sciences Ireland Unlimited Company, priority 2018, published 2022)
Counter-ions that a name gives are not always drawn. Like-named read-outs stand apart in the source and are kept apart here.

What was measured:
Assay type in all cases: cell-based
[1] = test system: HepG2.2.15 cells; assay: Cytotoxicity determination in HepG2.2.15 cells (CCK-8); conditions: 6 days treatment, CCK-8, highest concentration 100 uM
Source text: (§1) Example 2: Anti-Viral Assay in HepG2.2.15 Cells
(§2) 1.1. Cell line • HepG2.2.15 (the HepG2.2.15 cell line can be produced by transfection of the HepG2 cell line as described in Sells, Chen, and Acs 1987 (Proc. Natl. Acad. Sci. USA 84:1005-1009), and the HepG2 cell line is available from ATCC® under number HB-8065™).
(§3) Seed the cell HepG2.2.15 cells into 96-well plate in 2% FBS culture medium at the density of 40,000 cells/well and 5,000 cells/well for HBV inhibitory activity and cytotoxicity determination, respectively. After seeding, incubate the cell plates at 37° C., 5% CO2 overnight. The next day, medium containing compounds is added to the cell to treat the cells for 6 days with medium refreshed once in the middle of the treatment. 8 dose points with 3 folds dilution of each compound were adopted and the highest concentration of the compounds is 10 uM and 100 uM for HBV inhibitory activity and cytotoxicity determination, respectively.
(§4) After 6 days of compounds treatment, add 20 μl CCK-8 reagents to each well of cytotoxicity assay plates, incubate the plate at 37° C., 5% CO2 for 2.5 h and measure the absorbance at 450 nm wavelength, at the same time read the absorbance at 630 nm wavelength as reference.
(§5) 2.2. DATA Analysis EC50 and CC50 values are calculated by the GRAPHPAD PRISM software.

[2] = test system: HBV; assay: Anti-viral assay in HepG2.2.15 cells: HBV inhibitory activity (HBV DNA in culture medium by q-PCR); conditions: Hepatitis B virus, HepG2.2.15, 144 h
Source text: as §1, §2, §3
The HBV DAN change in the cell culture medium induced by the compounds is measured by q-PCR method. Briefly, the HBV DNA in the culture medium is extracted using QIAamp 96 DNA Blood Kit according to the manual and then quantified by q-PCR using the primers and probe in the table below.
as §5

[3] = Cytotoxicity determination in HepG2.2.15 cells (CCK-8); conditions: human, 6 days treatment, CCK-8, highest concentration 100 uM
Source text: as §1, §2, §3, §4, §5

[4] = HepG2.2.15 cells, 6 days treatment, HBV DNA in culture medium by q-PCR, highest concentration 10 uM, read-out: EC50

Structure (SMILES)	CC50 [1] [µM]	EC50 [2] [µM]	EC50 [2, 4] [µM]	CC50 at 6 days [3] [µM]
CCOC(=O)C1=C(C2CCN(c3nc(C)c(C(=O)O)o3)CC2)NC(c2nccs2)=NC1c1ccc(F)c(F)c1Cl (single isomer, unassigned) [II-64-B, Lithium 2-(4-(6-(2-chloro-3,4-difluorophenyl)-5-(ethoxycarbonyl)-2-(thiazol-2-yl)-3,6-dihydropyrimidin-4-yl)piperidin-1-yl)-4-methyloxazole-5-carboxylate]	6.84	0.075	–	–
CCOC(=O)C1=C(C2CCN(c3cnc(C(=O)O)s3)CC2)NC(c2nccs2)=NC1c1ccc(F)c(F)c1Cl (single isomer, unassigned) [II-76-B, 5-(4-(6-(2-Chloro-3,4-difluorophenyl)-5-(ethoxycarbonyl)-2-(thiazol-2-yl)-3,6-dihydropyrimidin-4-yl)piperidin-1-yl)thiazole-2-carboxylate lithium salt]	6.68	0.09	–	–
CCOC(=O)C1=C([C@H]2CC[C@@H](n3nccc3C(=O)O)CC2)NC(c2nccs2)=NC1c1ccc(F)c(F)c1Cl (single isomer, unassigned) [Compound I-39-B, (cis)-1-(4-(6-(2-Chloro-3,4-difluorophenyl)-5-(ethoxycarbonyl)-2-(thiazol-2-yl)-3,6-dihydropyrimidin-4-yl)cyclohexyl)-1H-pyrazole-5-carboxylic acid]	–	–	0.082	–
CCOC(=O)Cc1coc([C@H]2CC[C@H](C3=C(C(=O)OCC)C(c4ccc(F)c(F)c4Cl)N=C(c4nccs4)N3)CC2)n1 (single isomer, unassigned) [VII-23-Y, (trans)-Ethyl 4-(2-chloro-3,4-difluorophenyl)-(4-(4-(2-ethoxy-2-oxoethyl)oxazol-2-yl)cyclohexyl)-2-(thiazol-2-yl)-1,4-dihydropyrimidine-5-carboxylate]	–	–	–	8.18
COC(=O)C1=C(C2CCN(c3ncc(C)c(C(=O)O)n3)CC2)NC(c2nccs2)=NC1c1cccc(F)c1C (single isomer, unassigned) [II-5-B]	–	–	0.049	25.8
CCOC(=O)C1=C(C2CCN(c3ncc(C(=O)O)c(OC)n3)CC2)NC(c2nccs2)=NC1c1ccc(F)c(F)c1Cl (single isomer, unassigned) [II-72-B, 2-(4-(6-(2-Chloro-3,4-difluorophenyl)-5-(ethoxycarbonyl)-2-(thiazol-2-yl)-3,6-dihydropyrimidin-4-yl)piperidin-1-yl)-4-methoxypyrimidine-5-carboxylic acid]	–	–	0.062	5.59
